Patent publication US9212391B2, “Method for determining DNA fragmentation in microorganisms” (Universidad Autonoma de Madrid, priority 2006, dated 2015)
≈ marks a conversion by molar mass, not a printed value. Entries after “also recorded” stand apart in the source; their conditions may differ. Like-named read-outs stand apart in the source and are kept apart here.

Legend:
[1] = test system: Escherichia coli strain TG1 (sensitive strain); conditions: for Vital Stain Empty Capsules, Sensitive Strain: 40 minutes
[2] = test system: Escherichia coli strain TG1 (sensitive strain); assay: DNA fragmentation / DNA damage level by the process of the invention (microgel, lysis, SYBR Gold); conditions: for DNA damage (in words): 300 micrograms/ml
[3] = test system: Escherichia coli strain resistant to ciprofloxacin; conditions: 40 minutes, LB medium
[4] = test system: Escherichia coli strain resistant to ciprofloxacin; assay: Growth inhibition MIC (commercial test), resistant strain; type: cell-based; conditions: maximum concentration of the commercial test
[5] = test system: Escherichia coli strain sensitive (TG1); assay: Growth inhibition MIC (commercial test), sensitive strain; type: cell-based; conditions: read-out: minimum inhibitory concentration (MIC) of growth
[6] = 300 μg/ml, 40 min, exponential phase in LB medium

CC1(C)S[C@@H]2[C@H](NC(=O)[C@H](N)c3ccccc3)C(=O)N2[C@H]1C(=O)O [Ampicillin, ampicillin]
Vital Stain Empty Capsules [1, 6]: 5.00%
Vital Stain Empty Capsules ([1]; 300 micrograms/ml, 20 minutes): 0.67%
Vital Stain Empty Capsules ([1]; 300 micrograms/ml, 24 hours): 75.97%
DNA Fragmentation (percentage of bacteria with fragmented DNA) [2, 6]: 4.20%
DNA damage (in words) ([2]; 20 minutes): differences were not observed with respect to the control; also recorded: DNA fragments are not observed
DNA damage (in words) ([2]; 24 hours): massive presence of punctiform degraded DNA fragments; also recorded: the bottom is covered with DNA fragments

O=C(O)c1cn(C2CC2)c2cc(N3CCNCC3)c(F)cc2c1=O [Ciprofloxacin, ciprofloxacin]
Vital Stain Empty Capsules, Resistant Strain ([3]; 0.50 μg/ml): 0.00%
Vital Stain Empty Capsules, Resistant Strain ([3]; 1.00 μg/ml): 0.10%
Vital Stain Empty Capsules, Resistant Strain ([3]; 2.50 μg/ml): 0.10%
Vital Stain Empty Capsules, Resistant Strain ([3]; 10.00 μg/ml): 0.15%
Vital Stain Empty Capsules, Sensitive Strain ([1]; 0.003 μg/ml, exponential growth in LB medium): 0.70%
Vital Stain Empty Capsules, Sensitive Strain ([1]; 0.006 μg/ml, exponential growth in LB medium): 0.76%
Vital Stain Empty Capsules, Sensitive Strain ([1]; 0.012 μg/ml, exponential growth in LB medium): 1.06%
Vital Stain Empty Capsules, Sensitive Strain ([1]; 0.100 μg/ml, exponential growth in LB medium): 1.40%
Vital Stain Empty Capsules, Sensitive Strain ([1]; 0.50 μg/ml, LB medium): 0.05%
Vital Stain Empty Capsules, Sensitive Strain ([1]; 1.00 μg/ml, LB medium): 0.00%
Vital Stain Empty Capsules, Sensitive Strain ([1]; 2.50 μg/ml, LB medium): 0.15%
Vital Stain Empty Capsules, Sensitive Strain ([1]; 10.00 μg/ml, LB medium): 0.48%
Vital Stain Empty Capsules ([1]; 25 μg/ml, 40 min): 0.30%
MIC [4]: > 32 µg/mL
MIC [5]: 0.012 µg/mL (≈ 0.0362 µM)
minimum incubation time at which evident DNA damage was detected ([2]; 1 μg/ml): 5 min
DNA Fragmentation (percentage of bacteria with fragmented DNA) ([2]; 25 μg/ml, 40 min): 100.00%
DNA damage level ([2]; 0.006 micrograms/ml, 40 minutes): intermediate between level 1 and 2
minimum time of incubation to detect a minimal effect at DNA level (incl. […] processing) ([2]; 1 microgram/ml): 6.5 min
DNA damage level ([2]; 10 micrograms/ml for 40 minutes, immediately after the treatment (0 min after wash)): 3-4
size of the bacterial capsules versus the other assayed times ([2]; 10 micrograms/ml for 40 minutes, then 60 and 90 minutes in ciprofloxacin-free medium, image analysis): increases about double
time in antibiotic-free medium at which a statistically significant decrease of the fragment diffusion halo begins to be detected ([2]; 10 micrograms/ml for 40 minutes, then washed, image analysis, p<0.05): 15 min

OO [H2O2, hydrogen peroxide]
Vital Stain Empty Capsules ([1]; 10 mM, 10 min): 0.30%
Vital Stain Permeable ([1]; 10 mM, 10 min): 5.00%
DNA Fragmentation (percentage of bacteria with fragmented DNA) ([2]; 10 mM, 10 min): 100.00%
DNA fragmentation (in words) ([2]; 10 mM, 10 minutes): massive Escherichia coli DNA fragmentation

gentamicin
Vital Stain Empty Capsules [1, 6]: 0.50%
Vital Stain Permeable [1, 6]: 10.00%
DNA Fragmentation (percentage of bacteria with fragmented DNA) [2, 6]: 3.70%
